From PubChem BioAssay (NCI)
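Protocol summary: plate cells (96-well), add compound at 5 concentrations, incubate 48 h, interpolate endpoints linearly. TGI is the concentration that stops growth completely.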

Tests used:
Test in all cases: growth of human tumour cells (NCI), 48 h
MDA-MB-231 breast = system: MDA-MB-231 breast
HCT-116 colon = system: HCT-116 colon
U251 CNS = system: U251 CNS
SW-620 colon = system: SW-620 colon
UO-31 renal = system: UO-31 renal
M14 melanoma = system: M14 melanoma
HCT-15 colon = system: HCT-15 colon
LOX IMVI melanoma = system: LOX IMVI melanoma
K-562 leukemia = system: K-562 leukemia
MALME-3M melanoma = system: MALME-3M melanoma

C=CCC(C(=O)Nc1cccc2[nH]cnc12)C(=O)OCC (configuration not stated)
TGI (MDA-MB-231 breast): > 100 µM
TGI (HCT-116 colon): > 100 µM
TGI (U251 CNS): > 100 µM
TGI (SW-620 colon): > 100 µM
TGI (UO-31 renal): > 100 µM
TGI (M14 melanoma): > 100 µM
TGI (HCT-15 colon): > 100 µM
TGI (LOX IMVI melanoma): > 100 µM
TGI (K-562 leukemia): > 100 µM

COc1ccc(N2C(=O)C3c4[nH]c5ccccc5c4C4CCCCC4C3C2=O)cc1 (configuration not stated)
TGI (HCT-116 colon): 22 µM
TGI (U251 CNS): 38.6 µM
TGI (SW-620 colon): > 100 µM
TGI (MALME-3M melanoma): 25.8 µM
TGI (UO-31 renal): > 100 µM
TGI (M14 melanoma): > 100 µM
TGI (HCT-15 colon): > 100 µM
TGI (LOX IMVI melanoma): > 100 µM
TGI (K-562 leukemia): 73.8 µM

NC(N)=NCCCC(NC(=O)OCCCCn1ccc(N)nc1=O)C(=O)O (configuration not stated)
TGI (MDA-MB-231 breast): > 100 µM
TGI (HCT-116 colon): > 100 µM
TGI (U251 CNS): > 100 µM
TGI (SW-620 colon): > 100 µM
TGI (UO-31 renal): > 100 µM
TGI (M14 melanoma): > 100 µM
TGI (HCT-15 colon): > 100 µM
TGI (LOX IMVI melanoma): > 100 µM
TGI (K-562 leukemia): > 100 µM

O=C1NCCS(=O)(=O)N2CCC[C@@H]12
TGI (HCT-116 colon): > 100 µM
TGI (U251 CNS): > 100 µM
TGI (SW-620 colon): > 100 µM
TGI (MALME-3M melanoma): > 100 µM
TGI (UO-31 renal): > 100 µM
TGI (M14 melanoma): > 100 µM
TGI (HCT-15 colon): > 100 µM
TGI (LOX IMVI melanoma): > 100 µM
TGI (K-562 leukemia): > 100 µM

O=C1c2ccccc2C(=O)c2[nH]c(Cc3ccc(F)cc3)nc21
TGI (HCT-116 colon): 42.3 µM
TGI (U251 CNS): 47 µM
TGI (SW-620 colon): 38.3 µM
TGI (MALME-3M melanoma): 29.6 µM
TGI (UO-31 renal): 59.5 µM
TGI (M14 melanoma): 30.2 µM
TGI (HCT-15 colon): 21.6 µM
TGI (K-562 leukemia): > 100 µM

CC1=NN(c2nc(N)nc(CF)n2)C(C)(C)C1
TGI (MDA-MB-231 breast): > 100 µM
TGI (HCT-116 colon): > 100 µM
TGI (U251 CNS): > 100 µM
TGI (SW-620 colon): > 100 µM
TGI (UO-31 renal): > 100 µM
TGI (M14 melanoma): > 100 µM
TGI (HCT-15 colon): > 100 µM
TGI (LOX IMVI melanoma): > 100 µM
TGI (K-562 leukemia): > 100 µM

CCCC(=O)[O-].N.N.N.N.N.[Co+3].[O-][Cl+3]([O-])([O-])[O-]
TGI (HCT-116 colon): > 100 µM
TGI (U251 CNS): > 100 µM
TGI (SW-620 colon): > 100 µM
TGI (MALME-3M melanoma): > 100 µM
TGI (UO-31 renal): > 100 µM
TGI (M14 melanoma): > 100 µM
TGI (HCT-15 colon): > 100 µM
TGI (LOX IMVI melanoma): > 100 µM
TGI (K-562 leukemia): > 100 µM

CC1(C)N=C(c2ccccn2)C(c2ccccn2)=NC1(C)C
TGI (HCT-116 colon): > 100 µM
TGI (U251 CNS): > 100 µM
TGI (SW-620 colon): > 100 µM
TGI (MALME-3M melanoma): > 100 µM
TGI (UO-31 renal): > 100 µM
TGI (M14 melanoma): > 100 µM
TGI (HCT-15 colon): > 100 µM
TGI (LOX IMVI melanoma): > 100 µM
TGI (K-562 leukemia): > 100 µM

COc1ccc(Sc2ccccc2N)cc1
TGI (HCT-116 colon): > 100 µM
TGI (U251 CNS): 49.8 µM
TGI (SW-620 colon): > 100 µM
TGI (MALME-3M melanoma): > 100 µM
TGI (UO-31 renal): 92.9 µM
TGI (M14 melanoma): > 100 µM
TGI (HCT-15 colon): > 100 µM
TGI (LOX IMVI melanoma): > 100 µM
TGI (K-562 leukemia): > 100 µM

CC(C)(C)OC(=O)NCC(=O)N1CCN(C(=O)CNC(=O)OC(C)(C)C)CC1
TGI (MDA-MB-231 breast): > 100 µM
TGI (HCT-116 colon): > 100 µM
TGI (U251 CNS): > 100 µM
TGI (SW-620 colon): > 100 µM
TGI (UO-31 renal): > 100 µM
TGI (M14 melanoma): > 100 µM
TGI (HCT-15 colon): > 100 µM
TGI (LOX IMVI melanoma): > 100 µM
TGI (K-562 leukemia): > 100 µM

CCOC(=O)C(NC(=O)OC(C)(C)C)C(=O)OCC
TGI (HCT-116 colon): > 100 µM
TGI (U251 CNS): > 100 µM
TGI (SW-620 colon): > 100 µM
TGI (UO-31 renal): > 100 µM
TGI (HCT-15 colon): > 100 µM
TGI (K-562 leukemia): > 100 µM

CN1C/C(=C\C=C\c2ccccc2)C(=O)/C(=C/C=C/c2ccccc2)C1
TGI (HCT-116 colon): > 100 µM
TGI (U251 CNS): > 100 µM
TGI (SW-620 colon): > 100 µM
TGI (MALME-3M melanoma): > 100 µM
TGI (UO-31 renal): > 100 µM
TGI (M14 melanoma): > 100 µM
TGI (HCT-15 colon): > 100 µM
TGI (LOX IMVI melanoma): > 100 µM
TGI (K-562 leukemia): > 100 µM

NC(CSSCC(N)Cc1ccccc1)Cc1ccccc1 (configuration not stated)
TGI (HCT-116 colon): > 100 µM
TGI (U251 CNS): > 100 µM
TGI (SW-620 colon): > 100 µM
TGI (MALME-3M melanoma): > 100 µM
TGI (UO-31 renal): > 100 µM
TGI (M14 melanoma): 63.4 µM
TGI (HCT-15 colon): > 100 µM
TGI (LOX IMVI melanoma): 84.4 µM
TGI (K-562 leukemia): > 100 µM

Oc1ccc(Cl)cc1C1=NC(/N=C\c2ccccc2)=NC(c2ccccc2)C1 (configuration not stated)
TGI (MDA-MB-231 breast): > 100 µM
TGI (HCT-116 colon): > 100 µM
TGI (U251 CNS): > 100 µM
TGI (SW-620 colon): > 100 µM
TGI (UO-31 renal): 74.1 µM
TGI (M14 melanoma): > 100 µM
TGI (K-562 leukemia): > 100 µM

O=c1oc2ccccc2c(O)c1C(C/C(CCN1CCCC1)=N\Nc1ccccc1)c1ccccc1 (configuration not stated)
TGI (HCT-116 colon): > 100 µM
TGI (U251 CNS): > 100 µM
TGI (SW-620 colon): > 100 µM
TGI (MALME-3M melanoma): > 100 µM
TGI (UO-31 renal): > 100 µM
TGI (M14 melanoma): > 100 µM
TGI (HCT-15 colon): > 100 µM
TGI (LOX IMVI melanoma): > 100 µM
TGI (K-562 leukemia): > 100 µM

O=C(CSc1nc2ccccc2c(=O)n1-c1ccccc1)N=Nc1c(O)[nH]c2ccc(F)cc12
TGI (MDA-MB-231 breast): 4.79 µM
TGI (HCT-116 colon): 4.46 µM
TGI (U251 CNS): > 100 µM
TGI (SW-620 colon): 15.2 µM
TGI (UO-31 renal): 3.73 µM
TGI (M14 melanoma): 4.57 µM
TGI (LOX IMVI melanoma): > 100 µM
TGI (K-562 leukemia): 3.35 µM

COC(=O)C(NC(=O)c1ccccc1)C(c1ccc(Cl)cc1)P(=O)(OC)OC (configuration not stated)
TGI (HCT-116 colon): > 100 µM
TGI (U251 CNS): > 100 µM
TGI (SW-620 colon): > 100 µM
TGI (UO-31 renal): > 100 µM
TGI (M14 melanoma): > 100 µM
TGI (HCT-15 colon): > 100 µM
TGI (LOX IMVI melanoma): > 100 µM
TGI (K-562 leukemia): > 100 µM

Cc1ccc([N+](=O)[O-])c2c(NCC(O)CO)ccnc12 (configuration not stated)
TGI (HCT-116 colon): > 100 µM
TGI (U251 CNS): > 100 µM
TGI (SW-620 colon): > 100 µM
TGI (MALME-3M melanoma): 44.6 µM
TGI (UO-31 renal): > 100 µM
TGI (M14 melanoma): > 100 µM
TGI (HCT-15 colon): > 100 µM
TGI (LOX IMVI melanoma): > 100 µM
TGI (K-562 leukemia): > 100 µM

Cc1c(C(=O)O)n2cnnc2c2ccccc12
TGI (MDA-MB-231 breast): > 100 µM
TGI (HCT-116 colon): > 100 µM
TGI (U251 CNS): > 100 µM
TGI (SW-620 colon): > 100 µM
TGI (UO-31 renal): > 100 µM
TGI (M14 melanoma): > 100 µM
TGI (HCT-15 colon): > 100 µM
TGI (LOX IMVI melanoma): > 100 µM
TGI (K-562 leukemia): > 100 µM

COc1ccc2c(c1)OC[C@@H]1c3cc(O)c(OCc4ccccc4)cc3O[C@H]21
TGI (HCT-116 colon): > 100 µM
TGI (U251 CNS): 68.4 µM
TGI (SW-620 colon): 96.2 µM
TGI (MALME-3M melanoma): 85.7 µM
TGI (UO-31 renal): 75.9 µM
TGI (M14 melanoma): 82.6 µM
TGI (HCT-15 colon): > 100 µM
TGI (LOX IMVI melanoma): > 100 µM
TGI (K-562 leukemia): > 100 µM
